Results from article PMC9465256, “Discovering monoacylglycerol lipase inhibitors by a combination of fluorogenic substrate assay and activity-based protein profiling” (Frontiers in Pharmacology, 2022).

How the values were obtained:
[1] = test system: panel of cancer cell lines (A431, H1975, B16-F10, OVCAR-3, HT-29, HCC827, Hela, A549); test: Cell viability assay (CCK-8), panel of eight cancer cell lines; type: cell-based; settings: 48 h; for antiproliferative screening across the cell line panel: 20 µM
Protocol: (§1) Various cancer cell lines, including human colon cancer cell line HT-29, ovarian cell line OVCAR-3, melanoma cell line B16-F10, skin squamous cancer cells A431, cervical cancer cells Hela, lung cancer cell lines A549, H1975, and HCC827, were purchased from American type culture collection (ATCC). A431, H1975, B16-F10, OVCAR-3, HT-29, HCC827, Hela, and A549 cells were cultured in Dulbecco’s modified Eagle medium (DMEM, Gibco) containing 10% fetal bovine serum (FBS, Gibco), penicillin (100 U/ml) and streptomycin (100 μg/ml). All cell lines were maintained in a humidified 37°C incubator with 5% CO2. The medium was refreshed every 2–3 days and the cells were passaged at ∼90% confluence by adding the fresh medium, followed by vigorously pipetting the resuspend cells. Of note, the cells were only washed with PBS when a significant number of dead cells were observed.
(§2) The antiproliferation activity of the compounds against the cancer cell lines was evaluated using Cell Counting Kit-8. Briefly, cells (∼1,000 per well) in 100 µl of culture medium were plated in a 96-well plate for 24 h and 100 µl of medium with different concentrations of the tested compounds was added to each well for 48 h. Then 10 μl of CCK8 solution (#CK04, Dojindo) was added and incubated at 37°C for 2 h. The absorbance of each well was measured with a plate reader (BioTeck) at 450 nm. Cell viability was calculated as follows: cell viability (%) = [(As-Ab)/(Ac-Ab)] × 100. Among them, As represents the absorbance of experimental wells, Ab represents the absorbance of blank wells and Ac represents the absorbance of control wells. The experiments were repeated at least three times and IC50 values were determined by plotting a log(inhibitor) v. s normalized response (Variable slope) dose–response curve generated using GraphPad Prism software.

A549 cells = test: Cell viability assay (CCK-8), A549; type: cell-based; settings: A549, 48 h; for IC50: Homo sapiens, read-out: Antiproliferation activity (pIC50 ± SEM) A549 (converted)
Protocol: as §1, §2

HT-29 cells = test: Cell viability assay (CCK-8), HT-29; type: cell-based, human; settings: HT-29, 48 h; for IC50: Homo sapiens, read-out: Antiproliferation activity (pIC50 ± SEM) HT-29 (converted)
Protocol: as §1, §2

[2] = test system: serine hydrolases labeled by FP-TAMRA in cancer cells; test: Competitive ABPP in cancer cell lysates: selectivity / potential targets; type: biochemical; settings: 100 µM, FP-TAMRA 500 nM, in-gel analysis
Protocol: To identify the potential off-targets of the compounds with anti-cancer activities, ABPP was applied. Cancer cells were seeded in the dishes and were washed with PBS, scraped, centrifugated (3,000 × g, 3 min) and pellets snap frozen in liquid in nitrogen. For ABPP experiments, the cell pellets were lysed by probe sonication (3 × 10 bursts) in PBS, followed by the determination of protein concentration of the intact cell lysate by Qubit assay. Subsequently, 20 µl of the cell lysate (1 mg/ml) was preincubated with 0.5 µl of DMSO (vehicle) or inhibitor (100 μM, finial concentration) for 30 min, followed by the treatment with FP-TAMRA (500 nM, final concentration) for 20 min. The reactions were then quenched by 10 µl sample buffer (×4). The obtained samples were directly loaded and resolved on SDS-PAGE gel (10% acrylamide). The gel-based ABPP results were then scanned and analyzed using a ChemiDoc MP system (Cy3 settings, BioRad).

HCC827 cells = test: Cell viability assay (CCK-8), HCC827; type: cell-based; settings: HCC827, 48 h; for IC50: Homo sapiens, read-out: Antiproliferation activity (pIC50 ± SEM) HCC827 (converted)
Protocol: as §1, §2

endogenous mouse MAGL = molecular target: T1, endogenous mouse MAGL (Mus musculus, UniProt O35678); test: Competitive ABPP, mouse brain membrane proteome: MAGL band; type: biochemical; settings: FP-TAMRA 250 nM
T1 construct: on endogenous MAGL, we applied an ABPP assay with mouse brain membrane proteome; from tissue; host or cells: mouse brain membrane fraction
T1 sequence (O35678 1-303): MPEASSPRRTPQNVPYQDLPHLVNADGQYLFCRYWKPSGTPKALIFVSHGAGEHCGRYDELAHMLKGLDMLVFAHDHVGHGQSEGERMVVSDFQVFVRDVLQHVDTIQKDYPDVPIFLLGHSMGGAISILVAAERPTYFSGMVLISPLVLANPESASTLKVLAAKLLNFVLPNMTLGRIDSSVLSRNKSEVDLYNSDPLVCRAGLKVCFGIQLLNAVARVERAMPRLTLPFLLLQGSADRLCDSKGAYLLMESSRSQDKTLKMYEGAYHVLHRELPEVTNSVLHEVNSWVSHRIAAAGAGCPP
Protocol: Mouse brains were isolated according to guidelines approved by the ethical committee of Western China Hospital, Sichuan University (No. 2021765A). Mouse brains were dounce homogenized lysis buffer (20 mM HEPES, 2 mM DTT, 1 mM MgCl2, 25 U/mL benzonase) and incubated on ice for 15 min, followed by low-speed spin (2,500 g, 3 min, 4 C) to remove debris. The supernatant was subjected to ultracentrifugation (100,000 g, 45 min, 4°C) to generate the cytosolic fraction in the supernatant, as well as the membrane fraction as a pellet. After removal of the soluble supernatant, the pellet was resuspended in storage buffer (20 mM HEPES, 2 mM DTT) by pipetting. Total protein concentrations in membrane and soluble fractions were determined using a Qubit protein assay (Invitrogen). The obtained samples were stored at −80°C until further use.
The competitive ABPP selectivity assay was performed according to the previously reported protocol. Briefly, mouse brain membrane proteome (2 mg/ml, 20 µl) was preincubated for 30 min with 0.5 µl of DMSO (vehicle) or inhibitor (100 μM, finial concentration). Subsequently, the proteome-inhibitor complex was treated with the activity-based probe FP-TAMRA (250 nM, final concentration) for 20 min. […] The gels were then scanned and analyzed using a ChemiDoc MP system (Cy3 settings, BioRad). All the samples were measured and duplicated.

## Cl.N=c1ccn2c(n1)O[C@H]1[C@H](O)[C@@H](CO)O[C@H]12 [compound 1, Cyclocytidine HCl]
[1]
  antiproliferative screening across the cell line panel: appreciable inhibition against almost all the tested cell lines
A549 cells
  Antiproliferation activity (pIC50 ± SEM) A549: 6.3 ± 0.2
HT-29 cells
  Antiproliferation activity (pIC50 ± SEM) HT-29: <5
[2]
  selectivity / potential targets among serine hydrolases in cancer cells: No potential target was found
HCC827 cells
  Antiproliferation activity (pIC50 ± SEM) HCC827: 5.1 ± 0.2

## COc1ccc(C(C)=O)c(O)c1 [compound 64, Paeonol]
[1]
  antiproliferative screening across the cell line panel: selectively inhibited cell proliferation of A431 over other cell lines
A549 cells
  IC50: > 10 µM
HT-29 cells
  IC50: > 10 µM
[2]
  selectivity / potential targets among serine hydrolases in cancer cells: No potential target was found
HCC827 cells
  IC50: > 10 µM

## C[C@H]1COC2=C1C(=O)C(=O)c1c2ccc2c1CCCC2(C)C [compound 23, Cryptotanshinone]
[1]
  antiproliferative screening across the cell line panel: appreciable inhibition against almost all the tested cell lines
[1]; CCK-8, read-out: pIC50 towards all eight cancer cell lines (converted)
  IC50: ≤ 10 µM
A549 cells
  IC50: 3.16 µM
HT-29 cells
  IC50: 10 µM
[2]
  selectivity / potential targets among serine hydrolases in cancer cells: broad-spectrum inhibitor by targeting a number of serine hydrolases in cancer cells
HCC827 cells
  IC50: 6.31 µM
Endogenous mouse MAGL
  inhibition at 100 µM: 50 to 60%

## COc1ccc2cc3[n+](cc2c1OC)CCc1cc2c(cc1-3)OCO2 [compound 17, Berberine chloride]
A549 cells
  IC50: > 10 µM
HT-29 cells
  IC50: > 10 µM
[2]
  selectivity / potential targets among serine hydrolases in cancer cells: No potential target was found
HCC827 cells
  IC50: > 10 µM

## O=c1cc(-c2ccc(O)cc2)oc2cc(O)cc(O)c12 [compound 9, Apigenin]
[1]
  antiproliferative screening across the cell line panel: neglectable antiproliferative behavior to other cell lines
A549 cells
  IC50: > 10 µM
HT-29 cells
  IC50: > 10 µM
HCC827 cells
  IC50: > 10 µM
